Measurements: ChEMBL document CHEMBL1136229, “Design and synthesis of fluorinated RXR modulators” (Bioorg Med Chem Lett, 2003)

Experiments:
RXR alpha/PPAR gamma = RXR alpha/PPAR gamma (Homo sapiens, UniProt P19793); assay: Synergistic activation of BRL-49653 mediated PPAR gamma and retinoid X receptor alpha expressed in CV-1 cell transcriptional activation assay; assay type: functional, cell-based
[1] = biological target: T1, Retinoic acid receptor gamma (Homo sapiens, UniProt P13631); assay: Inhibition of 3[H]ATRA binding to retinoid acid receptor gamma expressed in CV-1 cells; assay type: cell-based
T1 sequence (P13631 whole entry): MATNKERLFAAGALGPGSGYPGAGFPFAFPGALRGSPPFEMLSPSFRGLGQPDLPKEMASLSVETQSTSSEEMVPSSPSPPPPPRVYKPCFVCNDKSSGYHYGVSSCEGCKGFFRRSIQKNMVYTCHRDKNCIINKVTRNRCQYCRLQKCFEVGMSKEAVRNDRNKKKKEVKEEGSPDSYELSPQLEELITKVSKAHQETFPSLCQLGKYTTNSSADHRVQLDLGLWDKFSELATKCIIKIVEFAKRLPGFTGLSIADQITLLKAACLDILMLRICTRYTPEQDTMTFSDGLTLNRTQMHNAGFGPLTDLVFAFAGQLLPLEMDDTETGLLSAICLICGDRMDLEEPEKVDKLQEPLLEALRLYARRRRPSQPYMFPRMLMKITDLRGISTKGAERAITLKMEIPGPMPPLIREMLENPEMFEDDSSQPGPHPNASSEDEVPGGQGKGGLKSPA

[2] = biological target: T2, Retinoic acid receptor RXR-alpha (Homo sapiens, UniProt P19793); assay: Inhibition of 3[H]9-cis-retinoic acid binding to Retinoic acid receptor RXR-alpha expressed in CV-1 cells; assay type: cell-based
T2 sequence (P19793 whole entry): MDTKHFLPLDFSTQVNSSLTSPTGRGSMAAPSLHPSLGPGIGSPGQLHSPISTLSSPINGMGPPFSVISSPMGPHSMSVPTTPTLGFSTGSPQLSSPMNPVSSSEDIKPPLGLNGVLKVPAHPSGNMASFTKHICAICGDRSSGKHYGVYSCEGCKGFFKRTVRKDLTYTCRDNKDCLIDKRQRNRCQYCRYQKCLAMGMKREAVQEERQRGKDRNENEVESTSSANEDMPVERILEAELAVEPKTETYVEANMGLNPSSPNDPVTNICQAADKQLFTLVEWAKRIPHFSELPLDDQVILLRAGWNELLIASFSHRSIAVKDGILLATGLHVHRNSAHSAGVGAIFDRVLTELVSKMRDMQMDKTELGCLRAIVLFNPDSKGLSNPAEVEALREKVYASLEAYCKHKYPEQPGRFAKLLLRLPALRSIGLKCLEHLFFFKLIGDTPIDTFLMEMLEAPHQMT

[3] = biological target: T2, Retinoic acid receptor RXR-alpha; assay: Antagonist activity against Retinoic acid receptor RXR-alpha expressed in CV-1 cell transcriptional activation assay; assay type: functional, cell-based
Homo sapiens = species: Homo sapiens; assay: Synergistic activation of retinoid acid receptor (RAR) transcriptional activation at 3 nM TTNPB; assay type: functional
[4] = biological target: T2, Retinoic acid receptor RXR-alpha; assay: Agonist activity against Retinoic acid receptor RXR-alpha expressed in CV-1 cell transcriptional activation assay; assay type: functional, cell-based
[5] = Tmax after oral administration at 30 mg/kg in ICR mouse; assay type: ADME, organism-based; design: dose 30 mg/kg, route oral; details: in vivo
[6] = AUC (0-6 hr) after oral administration at 30 mg/kg in ICR mouse; assay type: ADME, organism-based; design: time < 6 hr, route oral, dose 30 mg/kg; details: plasma
Mus musculus = assay: Cmax after oral administration at 30 mg/kg in ICR mouse; assay type: ADME, organism-based; design: dose 30 mg/kg, route oral; details: in vivo

Chain of RXR alpha/PPAR gamma (P37231 whole entry, one chain of several): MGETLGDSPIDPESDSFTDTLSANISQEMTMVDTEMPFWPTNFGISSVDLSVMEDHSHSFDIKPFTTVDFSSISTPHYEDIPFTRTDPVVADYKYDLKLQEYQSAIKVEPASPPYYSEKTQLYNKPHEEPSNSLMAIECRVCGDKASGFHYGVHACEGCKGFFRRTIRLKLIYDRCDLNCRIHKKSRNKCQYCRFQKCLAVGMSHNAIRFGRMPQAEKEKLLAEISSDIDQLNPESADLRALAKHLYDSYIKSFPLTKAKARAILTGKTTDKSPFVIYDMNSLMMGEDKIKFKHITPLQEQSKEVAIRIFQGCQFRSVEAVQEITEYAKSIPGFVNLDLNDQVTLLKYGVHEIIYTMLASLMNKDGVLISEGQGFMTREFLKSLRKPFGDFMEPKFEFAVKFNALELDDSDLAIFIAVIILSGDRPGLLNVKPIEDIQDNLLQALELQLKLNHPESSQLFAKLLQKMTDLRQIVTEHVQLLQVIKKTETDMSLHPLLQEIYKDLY

Row | Compound | EC50 (RXR alpha/PPAR gamma) [nM] | Ki [1] [µM] | Ki [2] [nM] | EC50 [3] [nM] | EC50 [4] [nM] | Tmax [5] [h] | AUC(0-t) at 6 h [6] [ng·h/mL] | Cmax (Mus musculus) [µg/mL] | Synergy (Homo sapiens)
1 | C/C(=C/C=C/C(C)=C(\F)C(=O)O)c1cc(C(C)(C)C)cc(C(C)(C)C)c1OCC(F)F | 2.7 | > 10 | 10.6 | 3.4 |  |  |  |  | 1.5
2 | CCOc1c(\C(=C/C=C/C(C)=C/C(=O)O)C(F)(F)F)cc(C(C)(C)C)cc1C(C)(C)C | 167 |  | 50.3 | 38 |  |  |  |  | 7
3 | CCCCOc1c(\C(C)=C/C=C/C(C)=C/C(=O)O)cc(C(C)(C)C)cc1C(C)(C)C | 9.2 | > 10 | 3.8 | 3.3 |  |  |  |  | 1.2
4 | CCCCOc1c(\C(C)=C/C=C/C(=C/C(=O)O)C(F)(F)F)cc(C(C)(C)C)cc1C(C)(C)C | 359 | > 10 | 5210 | 806 |  |  |  |  | 1.3
5 | CCOc1c(\C(C)=C/C=C/C(C)=C/C(=O)O)cc(C(C)(C)C)cc1C(C)(C)C |  | 8.57 |  | 6.4 |  |  |  |  | 2

Further lines, with some results ahead:

Row | EC50 (RXR alpha/PPAR gamma) [nM] | Ki [1] [µM] | Ki [2] [nM] | EC50 [3] [nM] | EC50 [4] [nM] | Tmax [5] [h] | AUC(0-t) at 6 h [6] [ng·h/mL] | Cmax (Mus musculus) [µg/mL] | Compound | Synergy (Homo sapiens)
6 | 249 | > 10 |  | 8710 | 259 |  |  |  | C/C(=C/C(F)=C/C(C)=C/C(=O)O)c1cc(C(C)(C)C)cc(C(C)(C)C)c1OCC(F)F | 8.9
7 |  | > 10 |  |  |  | 1 | 2090 | 1.2 | C/C(=C/C=C/C(C)=C/C(=O)O)c1cc(C(C)(C)C)cc(C(C)(C)C)c1OCC(F)F | 1.4
8 | 6.4 | > 10 | 7.8 | 6.8 |  | 3 | 17800 | 3.69 | CC(/C=C/C(F)=C(/C)c1cc(C(C)(C)C)cc(C(C)(C)C)c1OCC(F)F)=C\C(=O)O | 1.8
9 | 143 | > 10 |  | 4840 |  |  |  |  | C/C(=C/C=C(F)/C(C)=C/C(=O)O)c1cc(C(C)(C)C)cc(C(C)(C)C)c1OCC(F)F | 2.5
